The results in this text go back to article PMC9572860, “Antiprotozoal Activity of Azabicyclo-Nonanes Linked to Tetrazole or Sulfonamide Cores” (Molecules, 2022).

Molecules are shown by their SMILES.

For data set [1], the system named is T. b. rhodesiense STIB 900. Kind of data set: In vitro microplate resazurin assay against T. brucei rhodesiense. It is filed as cell-based, Trypanosoma brucei rhodesiense. The settings on record: for S.I. = IC50 (Cyt.)/IC50 (T.b.r.): L-6 cytotoxicity over T.b.r.; for IC50: Trypanosoma brucei, STIB 900 bloodstream forms, average of four determinations, read-out: T. Brucei Rhodesiense IC50. As to the method:
(§1) Compounds were tested for their activities against strains of P. falciparum and T. b. rhodesiense via microplate assays. Their cytotoxicity was determined with rat skeletal myoblasts (L-6 cells). Chloroquine and melarsoprol served as standards (Table 1).
Minimum essential medium (50 µL) supplemented with 25 mM HEPES, 1 g/L additional glucose, 1% MEM nonessential amino acids (100×), 0.2 mM 2-mercaptoethanol, 1 mM Na-pyruvate and 15% heat inactivated horse serum was added to each well of a 96-well microtiter plate. Serial drug dilutions of 11 three-fold dilution steps covering a range from 100 to 0.002 μg/mL were prepared. Then, 4 × 10^3 bloodstream forms of T. b. rhodesiense STIB 900 in 50 µL was added to each well and the plate incubated at 37 °C under a 5% CO2 atmosphere for 70 h. Ten microliters of resazurin solution (resazurin, 12.5 mg in 100 mL double-distilled water) was then added to each well and incubation continued for an additional 2–4 h. The plates were then read with a Spectramax Gemini XS microplate fluorometer (Molecular Devices Cooperation, Sunnyvale, CA, USA) using an excitation wavelength of 536 nm and an emission wavelength of 588 nm. Data were analyzed with the graphic program Softmax Pro (Molecular Devices Cooperation, Sunnyvale, CA, USA), which calculated IC50 values by linear regression and 4-parameter logistic regression from the sigmoidal dose inhibition curves. Melarsoprol (Arsobal Sanofi-Aventis, received from WHO) was used as control.
In general terms: The colour change of resazurin is a common sign of viable cells or microbes.

Data set [2] in a line: In vitro cytotoxicity with L-6 cells. It is filed as cell-based, rat. Particulars: rat. The protocol: as §1
Assays were performed in 96-well microtiter plates, each well containing 0.1 mL of RPMI 1640 medium supplemented with 1% L-glutamine (200 mM) and 10% fetal bovine serum and 4000 L-6 cells (a primary cell line derived from rat skeletal myoblasts, ATCC CRL-1458™). Serial drug dilutions of 11 three-fold dilution steps covering a range from 100 to 0.002 μg/mL were prepared. After 70 h of incubation, the plates were inspected under an inverted microscope to assure the growth of the controls and sterile conditions. Then, 0.01 mL resazurin solution (resazurin, 12.5 mg in 100 ml double-distilled water) was added to each well and the plates incubated for another 2 h. The plates were read with a Spectramax Gemini XS microplate fluorometer (Molecular Devices Cooperation, Sunnyvale, CA, USA) using an excitation wavelength of 536 nm and an emission wavelength of 588 nm. The IC50 values were calculated by linear regression from the sigmoidal dose inhibition curves using SoftmaxPro software (Molecular Devices Cooperation, Sunnyvale, CA, USA). Podophyllotoxin (Sigma P4405) was used as control.

Another data set has as its system P. falciparum K1. In words: In vitro microplate 3H-hypoxanthine incorporation assay against P. falciparum K1. It is filed as cell-based, Plasmodium falciparum. The settings on record: for S.I. = IC50 (Cyt.)/IC50 (P.f. K1): L-6 cytotoxicity over P.f. K1; for IC50: Plasmodium falciparum, K1 strain resistant to chloroquine and pyrimethamine, average of four determinations, read-out: P. Falciparum K1 IC50. The protocol: as §1
(§2) In vitro activity against erythrocytic stages of P. falciparum was determined using a ^3H-hypoxanthine incorporation assay, using the drug-sensitive NF54 strain [21] or the chloroquine- and pyrimethamine-resistant K1 strain [22]. Compounds were dissolved in DMSO at 10 mg/mL and added to parasite cultures incubated in RPMI 1640 medium without hypoxanthine, supplemented with HEPES (5.94 g/L), NaHCO3 (2.1 g/L), neomycin (100 U/mL), Albumax (5 g/L) and washed human red cells A+ at 2.5% hematocrit (0.3% parasitemia). Serial drug dilutions of 11 three-fold dilution steps covering a range from 100 to 0.002 µg/mL were prepared. The 96-well plates were incubated in a humidified atmosphere at 37 °C; 4% CO2, 3% O2, 93% N2. After 48 h, 0.05 mL of ^3H-hypoxanthine (=0.5 µCi) was added to each well of the plate. The plates were incubated for an additional 24 h under the same conditions. The plates were then harvested with a Betaplate cell harvester (Wallac, Zurich, Switzerland). The red blood cells were transferred onto a glass fiber filter and washed with distilled water. The dried filters were inserted into a plastic foil with 10 mL of scintillation fluid and counted in a Betaplate liquid scintillation counter (Wallac, Zurich, Switzerland). IC50 values were calculated from sigmoidal inhibition curves by linear regression using Microsoft Excel. Chloroquine (Sigma C6628) was used as control.

The next data set concerns P. falciparum NF54. Kind of data set: In vitro microplate 3H-hypoxanthine incorporation assay against P. falciparum NF54. Particulars: for S.I. = IC50 (Cyt.)/IC50 (P.f. NF54): L-6 cytotoxicity over P.f. NF54; for IC50: Plasmodium falciparum, NF54 strain sensitive to chloroquine and pyrimethamine, erythrocytic stages, average of four determinations, read-out: P. Falciparum NF54 IC50. It is filed as cell-based, Plasmodium falciparum. As to the method:
as §1, §2

On to `CN(C)C12CCN(CCN)C([C@@H](c3ccccc3)C1)[C@@H](c1ccccc1)C2` (racemic) [Compound 6, rac-(7R,8R)-2-[5-(Dimethylamino)-7,8-diphenyl-2-azabicyclo[3.2.2]nonan-2-yl]ethan-1-amine], for which, in data set [1], the “S.I. = IC50 (Cyt.)/IC50 (T.b.r.)” value was found to be 7.36 and the IC50 (commonly the concentration at which inhibition is half-maximal) amounted to 2920 nM. Further, the IC50 at 72 h in data set [2] was 21500 nM. Besides, in the data set with P. falciparum K1, the “S.I. = IC50 (Cyt.)/IC50 (P.f. K1)” value is 59.7 and the IC50 turned out to be 360 nM.
In the same order, the values of `NCCN1CC2[C@H](c3ccccc3)CC(N3CCCC3)(C[C@H]2c2ccccc2)C1` (racemic) [Compound 9, rac-(6R,9R)-2-[6,9-Diphenyl-1-(pyrrolidin-1-yl)-3-azabicyclo[3.2.2]nonan-3-yl]ethan-1-amine] are 21.7, 420 nM, 9120 nM, 14.5 and 630 nM.
For the compound `CC(C)(C)n1nnnc1CNCCN1CC2[C@H](c3ccccc3)CC(N3CCCCC3)(C[C@H]2c2ccccc2)C1` (racemic) [Compound 14, rac-(6R,9R)-N-[(1-tert-Butyl-1H-tetrazol-5-yl)methyl]-2-[6,9-diphenyl-1-(piperidin-1-yl)-3-azabicyclo[3.2.2]nonan-3-yl]ethan-1-amine], in data set [1], the “S.I. = IC50 (Cyt.)/IC50 (T.b.r.)” value was found to be 14.17 and the IC50 was 1200 nM. Also, in the data set with P. falciparum NF54, the “S.I. = IC50 (Cyt.)/IC50 (P.f. NF54)” value is listed as 8.76 and the IC50 is 1940 nM. In data set [2], this compound came in with an IC50 at 72 h of 17000 nM.
For `Cc1ccc(S(=O)(=O)NCCN2CCC3(N4CCCC4)C[C@H](c4ccccc4)C2[C@@H](c2ccccc2)C3)cc1` (racemic) [Compound 20, rac-(7R,8R)-4-Methyl-N-{2-[7,8-diphenyl-5-(pyrrolidin-1-yl)-2-azabicyclo[3.2.2]nonan-2-yl]ethyl}benzenesulfonamide] the same measures were 11.0, 647 nM, 14.7, 487 nM and 7150 nM.
For `Cc1ccc(S(=O)(=O)NCCN2CCC3(N4CCCCC4)C[C@H](c4ccccc4)C2[C@@H](c2ccccc2)C3)cc1` (racemic) [Compound 19, rac-(7R,8R)-4-Methyl-N-[2-(7,8-diphenyl-5-(piperidin-1-yl)-2-azabicyclo[3.2.2]nonan-2-yl)ethyl]benzenesulfonamide] the same measures were 9.39, 1150 nM, 18.7, 577 nM and 10800 nM.
In the same order, the values of `O=S(=O)(c1ccc(Cl)cc1)N1CCC2(N3CCCC3)C[C@H](c3ccccc3)C1[C@@H](c1ccccc1)C2` (racemic) [Compound 18, rac-(7R,8R)-2-(4-Chlorobenzenesulfonyl)-7,8-diphenyl-5-(pyrrolidin-1-yl)-2-azabicyclo[3.2.2]nonane] are 5.28, 1190 nM, 10.4, 606 nM and 6290 nM.
For `CC(C)(C)C(NCCN1CC2[C@H](c3ccccc3)CC(N3CCCCC3)(C[C@H]2c2ccccc2)C1)c1nnnn1C(C)(C)C` (mixture of isomers) [Compound 11A, rac-(1R)-1-(1-tert-Butyl-1H-tetrazol-5-yl)-2,2-dimethyl-N-{2-[(6R,9R)-6,9-diphenyl-1-(piperidin-1-yl)-3-azabicyclo[3.2.2]nonan-3-yl]ethyl}propan-1-amine], in data set [1], the “S.I. = IC50 (Cyt.)/IC50 (T.b.r.)” value was determined as 3.04 and the IC50 was 6610 nM. Moreover, in the data set on P. falciparum NF54, the “S.I. = IC50 (Cyt.)/IC50 (P.f. NF54)” value came to 6.75 and the IC50 is 2980 nM. This compound had an IC50 at 72 h in data set [2] of 20100 nM.
